SMILES strings stand for the structures.

The assay in a line: Growth inhibition of human NCI60 cells by sulforhodamine B assay. The format is functional. (Sulforhodamine B stains cellular protein and so reports cell mass.)
By GI50 is commonly meant the concentration that inhibits growth by half. Read a low GI50 as more potent growth inhibition. `COc1cc(C(=O)Nc2cc(O)c(C/C=C(\C)CCC=C(C)C)c(O)c2)cc2c1O[C@]1(C)CC[C@@H](O)C(C)(C)[C@H]1C2` registered a GI50 of 210 nM.
In turn, `COc1cc(NC(=O)c2cc(OC)c3ccn(C)c3c2)cc2c1O[C@]1(C)CC[C@@H](O)C(C)(C)[C@H]1C2` yielded a GI50 of 6600 nM.
Then `COc1cc(NC(=O)c2cc(O)c(C/C=C(\C)CCC=C(C)C)c(O)c2)cc2c1O[C@]1(C)CC[C@@H](O)C(C)(C)[C@H]1C2`, with 1100 nM; and `CC(C)=CCC/C(C)=C/Cc1c(O)cc(/C=C/c2cc(O)c3c(c2)C[C@@H]2C(C)(C)[C@H](O)[C@H](O)C[C@@]2(C)O3)cc1O` [SCHWEINFURTHIN A], with 360 nM; and `COc1cc(/C=C/c2cc(O)c(C/C=C(\C)CCC=C(C)C)c(O)c2)cc2c1O[C@]1(C)CC[C@@H](O)C(C)(C)[C@H]1C2` [3-DEOXYSCHWEINFURTHIN B], with 870 nM.
In turn, `COc1cc(C(=O)Nc2cc(OC)c3ccn(C)c3c2)cc2c1O[C@]1(C)CC[C@@H](O)C(C)(C)[C@H]1C2` registered a GI50 of 660 nM.

Source of the values: ChEMBL document CHEMBL4043210, “Synthesis of amide isosteres of schweinfurthin-based stilbenes” (2017).
